Where two headings read alike, the source gives them in different places.
Legend:
Format in all cases: biochemical
CDK7/cyclin H/MNAT1 = CDK7/cyclin H/MNAT1 (Homo sapiens (Human), UniProt P50613); experiment: IB35 kinases profiling at 100 nM (Adapta); conditions: IB35 100 nM, ATP Km app
Description: (§1) The results are reported below

CDK9/cyclin T1 = CDK9/cyclin T1 (Homo sapiens (Human), UniProt P50750); experiment: IB35 kinases profiling at 100 nM (Adapta); conditions: IB35 100 nM, ATP Km app
Description: as §1

CHUK (IKK alpha) = CHUK (IKK alpha) (Homo sapiens (Human), UniProt O15111); experiment: IB35 kinases profiling at 100 nM (Adapta); conditions: IB35 100 nM, ATP Km app
Description: as §1

PI4KB (PI4K beta) = PI4KB (PI4K beta) (Homo sapiens (Human), UniProt Q9UBF8); experiment: IB35 kinases profiling at 100 nM (Adapta); conditions: IB35 100 nM, ATP Km app
Description: as §1

[1] = biological target: PIK3CA/PIK3R1 (p110 alpha/p85 alpha) (Homo sapiens (Human), UniProt P42336); experiment: IB35 kinases profiling at 100 nM (Adapta); conditions: IB35 100 nM, ATP Km app
Description: as §1

[2] = biological target: PIK3CD/PIK3R1 (p110 delta/p85 alpha) (Homo sapiens (Human), UniProt O00329); experiment: IB35 kinases profiling at 100 nM (Adapta); conditions: IB35 100 nM, ATP Km app
Description: as §1

PIK3CG (p110 gamma) = PIK3CG (p110 gamma) (Homo sapiens (Human), UniProt P48736); experiment: IB35 kinases profiling at 100 nM (Adapta); conditions: IB35 100 nM, ATP Km app
Description: as §1

AKT2 (PKB beta) = AKT2 (PKB beta) (Homo sapiens (Human), UniProt P31751); experiment: IB35 kinases profiling at 100 nM (ZLYTE); conditions: IB35 100 nM, ATP Km app
Description: as §1

AMPK A2/B1/G1 = AMPK A2/B1/G1 (Homo sapiens (Human), UniProt P54646); experiment: IB35 kinases profiling at 100 nM (ZLYTE); conditions: IB35 100 nM, ATP Km app
Description: as §1

AURKA (Aurora A) = AURKA (Aurora A) (Homo sapiens (Human), UniProt O14965); experiment: IB35 kinases profiling at 100 nM (ZLYTE); conditions: IB35 100 nM, ATP Km app
Description: as §1

BTK = BTK (Homo sapiens (Human), UniProt Q06187); experiment: IB35 kinases profiling at 100 nM (ZLYTE); conditions: IB35 100 nM, ATP Km app
Description: as §1

CDC42 BPA (MRCKA) = CDC42 BPA (MRCKA) (Homo sapiens (Human), UniProt Q5VT25); experiment: IB35 kinases profiling at 100 nM (ZLYTE); conditions: IB35 100 nM, ATP Km app
Description: as §1

CDK5/p25 = CDK5/p25 (Homo sapiens (Human), UniProt Q00535); experiment: IB35 kinases profiling at 100 nM (ZLYTE); conditions: IB35 100 nM, ATP Km app
Description: as §1

CDK5/p35 = CDK5/p35 (Homo sapiens (Human), UniProt Q00535); experiment: IB35 kinases profiling at 100 nM (ZLYTE); conditions: IB35 100 nM, ATP Km app
Description: as §1

CSNK1A1 (CK1 alpha 1) = CSNK1A1 (CK1 alpha 1) (Homo sapiens (Human), UniProt P48729); experiment: IB35 kinases profiling at 100 nM (ZLYTE); conditions: IB35 100 nM, ATP Km app
Description: as §1

CSNK2A2 (CK2 alpha 2) = CSNK2A2 (CK2 alpha 2) (Homo sapiens (Human), UniProt P19784); experiment: IB35 kinases profiling at 100 nM (ZLYTE); conditions: IB35 100 nM, ATP Km app
Description: as §1

MAP2K2 (MEK2) = MAP2K2 (MEK2) (Homo sapiens (Human), UniProt P36507); experiment: IB35 kinases profiling at 100 nM (ZLYTE); conditions: IB35 100 nM, ATP 100
Description: as §1

[3] = biological target: MAPK14 (p38 alpha) Direct (Homo sapiens (Human), UniProt Q16539); experiment: IB35 kinases profiling at 100 nM (ZLYTE); conditions: IB35 100 nM, ATP Km app
Description: as §1

MAPK3 (ERK1) = MAPK3 (ERK1) (Homo sapiens (Human), UniProt P27361); experiment: IB35 kinases profiling at 100 nM (ZLYTE); conditions: IB35 100 nM, ATP Km app
Description: as §1

MAPK8 (JNK1) = MAPK8 (JNK1) (Homo sapiens (Human), UniProt P45983); experiment: IB35 kinases profiling at 100 nM (ZLYTE); conditions: IB35 100 nM, ATP 100
Description: as §1

MAPK9 (JNK2) = MAPK9 (JNK2) (Homo sapiens (Human), UniProt P45984); experiment: IB35 kinases profiling at 100 nM (ZLYTE); conditions: IB35 100 nM, ATP 100
Description: as §1

MAPKAPK2 = MAPKAPK2 (Homo sapiens (Human), UniProt P49137); experiment: IB35 kinases profiling at 100 nM (ZLYTE); conditions: IB35 100 nM, ATP Km app
Description: as §1

RPS6KB1 (p70S6K) = RPS6KB1 (p70S6K) (Homo sapiens (Human), UniProt P23443); experiment: IB35 kinases profiling at 100 nM (ZLYTE); conditions: IB35 100 nM, ATP Km app
Description: as §1

Chain of MAPK3 (ERK1) (P27361 whole entry, species assumed): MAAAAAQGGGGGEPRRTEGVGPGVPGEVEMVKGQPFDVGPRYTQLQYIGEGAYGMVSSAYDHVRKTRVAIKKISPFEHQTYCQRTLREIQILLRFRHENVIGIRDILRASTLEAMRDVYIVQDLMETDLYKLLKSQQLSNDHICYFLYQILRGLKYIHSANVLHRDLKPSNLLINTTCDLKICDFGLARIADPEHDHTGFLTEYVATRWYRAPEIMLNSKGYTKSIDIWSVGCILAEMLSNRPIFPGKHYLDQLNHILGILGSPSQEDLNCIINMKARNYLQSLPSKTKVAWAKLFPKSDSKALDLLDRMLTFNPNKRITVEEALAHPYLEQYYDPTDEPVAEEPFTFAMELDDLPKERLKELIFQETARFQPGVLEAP
Chain of RPS6KB1 (p70S6K) (P23443 whole entry, species assumed): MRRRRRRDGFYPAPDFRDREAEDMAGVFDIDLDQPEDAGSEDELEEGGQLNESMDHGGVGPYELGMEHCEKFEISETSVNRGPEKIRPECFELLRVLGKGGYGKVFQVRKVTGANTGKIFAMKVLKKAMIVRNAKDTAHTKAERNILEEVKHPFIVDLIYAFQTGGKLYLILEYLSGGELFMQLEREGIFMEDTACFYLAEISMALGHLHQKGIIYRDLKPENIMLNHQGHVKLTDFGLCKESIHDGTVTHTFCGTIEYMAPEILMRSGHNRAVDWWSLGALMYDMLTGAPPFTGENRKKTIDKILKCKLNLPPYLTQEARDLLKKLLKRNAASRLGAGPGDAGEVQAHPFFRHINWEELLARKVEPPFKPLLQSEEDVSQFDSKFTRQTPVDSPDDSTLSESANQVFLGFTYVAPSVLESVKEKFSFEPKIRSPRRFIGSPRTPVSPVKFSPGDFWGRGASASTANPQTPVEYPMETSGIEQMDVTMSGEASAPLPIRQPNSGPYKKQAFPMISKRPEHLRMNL
Chain of BTK (Q06187 whole entry): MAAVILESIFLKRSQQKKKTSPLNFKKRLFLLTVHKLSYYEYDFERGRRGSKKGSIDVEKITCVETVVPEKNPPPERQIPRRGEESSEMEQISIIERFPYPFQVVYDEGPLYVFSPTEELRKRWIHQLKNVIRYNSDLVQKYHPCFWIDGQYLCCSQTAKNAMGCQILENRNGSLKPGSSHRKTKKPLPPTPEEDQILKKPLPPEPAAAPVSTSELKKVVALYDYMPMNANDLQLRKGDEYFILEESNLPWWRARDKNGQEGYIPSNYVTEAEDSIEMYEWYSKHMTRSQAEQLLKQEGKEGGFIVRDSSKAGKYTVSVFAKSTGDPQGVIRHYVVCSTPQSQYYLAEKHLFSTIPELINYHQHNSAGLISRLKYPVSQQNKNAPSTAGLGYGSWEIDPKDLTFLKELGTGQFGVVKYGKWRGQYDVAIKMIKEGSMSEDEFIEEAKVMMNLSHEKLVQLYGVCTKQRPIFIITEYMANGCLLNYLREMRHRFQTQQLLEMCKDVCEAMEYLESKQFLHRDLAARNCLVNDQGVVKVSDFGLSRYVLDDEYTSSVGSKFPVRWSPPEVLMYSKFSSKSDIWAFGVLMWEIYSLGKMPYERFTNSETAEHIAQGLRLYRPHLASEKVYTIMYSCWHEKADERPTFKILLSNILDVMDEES
Chain of MAP2K2 (MEK2) (P36507 whole entry, species assumed): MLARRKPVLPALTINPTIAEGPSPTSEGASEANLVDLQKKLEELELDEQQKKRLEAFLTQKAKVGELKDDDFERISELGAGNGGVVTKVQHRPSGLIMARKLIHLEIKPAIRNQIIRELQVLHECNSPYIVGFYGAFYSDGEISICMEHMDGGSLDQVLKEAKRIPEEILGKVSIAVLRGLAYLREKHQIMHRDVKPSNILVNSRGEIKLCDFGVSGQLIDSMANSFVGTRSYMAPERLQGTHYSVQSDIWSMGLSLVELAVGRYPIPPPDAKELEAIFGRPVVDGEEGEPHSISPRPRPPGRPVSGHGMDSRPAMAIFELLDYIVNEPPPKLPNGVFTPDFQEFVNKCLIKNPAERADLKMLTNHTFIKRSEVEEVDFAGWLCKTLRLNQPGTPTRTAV
Chain of MAPK14 (p38 alpha) Direct (Q16539 whole entry): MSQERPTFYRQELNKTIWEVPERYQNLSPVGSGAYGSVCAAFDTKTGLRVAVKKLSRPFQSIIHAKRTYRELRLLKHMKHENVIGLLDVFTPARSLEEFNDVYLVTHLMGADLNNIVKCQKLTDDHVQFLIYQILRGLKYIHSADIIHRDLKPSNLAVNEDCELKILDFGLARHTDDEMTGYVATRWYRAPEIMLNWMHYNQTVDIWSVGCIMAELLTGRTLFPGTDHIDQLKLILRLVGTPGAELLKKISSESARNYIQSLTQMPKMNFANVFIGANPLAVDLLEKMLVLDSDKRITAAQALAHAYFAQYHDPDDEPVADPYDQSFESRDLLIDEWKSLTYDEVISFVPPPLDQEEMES
Chain of CDK7/cyclin H/MNAT1 (P50613 whole entry): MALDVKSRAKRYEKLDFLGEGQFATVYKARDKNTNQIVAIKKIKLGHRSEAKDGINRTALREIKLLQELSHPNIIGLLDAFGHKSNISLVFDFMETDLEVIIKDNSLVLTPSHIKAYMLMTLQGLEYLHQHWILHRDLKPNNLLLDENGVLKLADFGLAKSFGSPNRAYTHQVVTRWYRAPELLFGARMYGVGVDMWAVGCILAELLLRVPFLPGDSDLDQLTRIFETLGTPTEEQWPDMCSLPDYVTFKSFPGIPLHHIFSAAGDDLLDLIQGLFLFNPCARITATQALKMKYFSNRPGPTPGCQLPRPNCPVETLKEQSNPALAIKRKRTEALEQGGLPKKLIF
Chain of CDK7/cyclin H/MNAT1 (P51946 whole entry partner): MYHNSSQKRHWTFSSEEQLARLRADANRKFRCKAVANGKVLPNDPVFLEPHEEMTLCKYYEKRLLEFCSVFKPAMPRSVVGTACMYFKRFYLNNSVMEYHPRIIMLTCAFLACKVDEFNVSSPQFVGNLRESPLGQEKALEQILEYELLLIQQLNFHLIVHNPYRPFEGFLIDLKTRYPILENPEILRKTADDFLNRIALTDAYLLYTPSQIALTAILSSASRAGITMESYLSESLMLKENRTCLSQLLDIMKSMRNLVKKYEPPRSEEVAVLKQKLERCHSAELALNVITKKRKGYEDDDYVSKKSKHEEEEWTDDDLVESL
Chain of CDK7/cyclin H/MNAT1 (P51948 whole entry partner): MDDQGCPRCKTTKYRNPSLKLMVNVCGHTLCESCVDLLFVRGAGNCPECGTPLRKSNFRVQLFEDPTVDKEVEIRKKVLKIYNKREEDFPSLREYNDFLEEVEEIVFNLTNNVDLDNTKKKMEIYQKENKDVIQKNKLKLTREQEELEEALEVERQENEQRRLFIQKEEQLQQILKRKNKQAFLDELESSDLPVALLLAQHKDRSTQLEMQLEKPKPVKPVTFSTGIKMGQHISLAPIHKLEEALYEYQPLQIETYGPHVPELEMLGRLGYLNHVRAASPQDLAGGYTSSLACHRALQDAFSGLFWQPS
Chain of CDK5/p25 (Q00535 whole entry): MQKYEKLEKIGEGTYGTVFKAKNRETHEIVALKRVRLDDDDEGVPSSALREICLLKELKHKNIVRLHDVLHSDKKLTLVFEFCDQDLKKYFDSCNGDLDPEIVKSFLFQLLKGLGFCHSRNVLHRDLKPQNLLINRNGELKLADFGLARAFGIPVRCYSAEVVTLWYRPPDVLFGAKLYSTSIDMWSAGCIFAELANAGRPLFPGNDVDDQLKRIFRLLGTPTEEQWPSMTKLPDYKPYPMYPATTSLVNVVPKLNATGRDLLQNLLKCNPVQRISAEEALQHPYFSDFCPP
Chain of CDK5/p25 (Q15078 99-307 partner): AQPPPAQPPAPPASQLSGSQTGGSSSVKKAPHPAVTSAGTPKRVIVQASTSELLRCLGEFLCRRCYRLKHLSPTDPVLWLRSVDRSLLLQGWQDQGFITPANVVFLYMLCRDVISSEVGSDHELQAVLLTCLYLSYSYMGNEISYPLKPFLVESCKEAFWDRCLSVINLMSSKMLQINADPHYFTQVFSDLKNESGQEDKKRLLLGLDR
Chain of CDK5/p35 (Q00535 whole entry): as the sequence (Q00535 whole entry) above
Chain of CDK5/p35 (Q15078 whole entry partner): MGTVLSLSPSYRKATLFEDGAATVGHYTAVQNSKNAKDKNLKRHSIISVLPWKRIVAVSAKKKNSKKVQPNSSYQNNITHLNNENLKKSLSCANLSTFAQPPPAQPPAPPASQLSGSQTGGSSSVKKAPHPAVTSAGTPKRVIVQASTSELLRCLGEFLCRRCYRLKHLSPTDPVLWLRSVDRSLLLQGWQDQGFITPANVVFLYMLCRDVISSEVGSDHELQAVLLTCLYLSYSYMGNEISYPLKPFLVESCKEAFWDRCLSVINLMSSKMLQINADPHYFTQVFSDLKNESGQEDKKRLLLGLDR
Chain of MAPKAPK2 (P49137 whole entry, species assumed): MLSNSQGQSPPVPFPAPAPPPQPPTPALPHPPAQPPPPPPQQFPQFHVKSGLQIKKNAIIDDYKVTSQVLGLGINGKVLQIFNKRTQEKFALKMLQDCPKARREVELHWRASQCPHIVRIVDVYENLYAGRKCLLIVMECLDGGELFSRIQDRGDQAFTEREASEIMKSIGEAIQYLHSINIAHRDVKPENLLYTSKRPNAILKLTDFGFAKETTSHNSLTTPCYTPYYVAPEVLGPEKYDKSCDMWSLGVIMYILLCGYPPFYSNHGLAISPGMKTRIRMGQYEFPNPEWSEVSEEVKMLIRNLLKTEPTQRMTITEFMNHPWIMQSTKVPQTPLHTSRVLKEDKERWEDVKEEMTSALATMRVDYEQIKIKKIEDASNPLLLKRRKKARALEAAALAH

Q: What does the source list for `O=C(CNC(=O)c1cccn(Cc2ccc(F)c(F)c2)c1=O)Nc1ccc2c(c1)/C(=C/c1cnc[nH]1)C(=O)N2` [IB35, (Z)—N-(2-((3-((1H-imidazol-5-yl)methylene)-2-oxoindolin-5-yl)amino)-2-oxoethyl)-1-(3,4-difluorobenzyl)-2-oxo-1,2-dihydro pyridine-3-carboxamide]?
A: inhibition at 0.1 µM (CDK7/cyclin H/MNAT1; read-out: % Inhibition 1): 2%; inhibition at 0.1 µM (CDK7/cyclin H/MNAT1; read-out: % Inhibition 2): -1%; inhibition at 0.1 µM (CDK7/cyclin H/MNAT1; read-out: % Inhibition Avg): 1%; inhibition at 0.1 µM (CDK9/cyclin T1; read-out: % Inhibition 1): 7%; inhibition at 0.1 µM (CDK9/cyclin T1; read-out: % Inhibition 2): 5%; inhibition at 0.1 µM (CDK9/cyclin T1; read-out: % Inhibition Avg): 6%; inhibition at 0.1 µM (CHUK (IKK alpha); read-out: % Inhibition 1): -2%; inhibition at 0.1 µM (CHUK (IKK alpha); read-out: % Inhibition 2): 7%; inhibition at 0.1 µM (CHUK (IKK alpha); read-out: % Inhibition Avg): 3%; inhibition at 0.1 µM (PI4KB (PI4K beta); read-out: % Inhibition 1): -3%; inhibition at 0.1 µM (PI4KB (PI4K beta); read-out: % Inhibition 2): 12%; inhibition at 0.1 µM (PI4KB (PI4K beta); read-out: % Inhibition Avg): 4%; inhibition at 0.1 µM ([1]; read-out: % Inhibition 1): 16%; inhibition at 0.1 µM ([1]; read-out: % Inhibition 2): 24%; inhibition at 0.1 µM ([1]; read-out: % Inhibition Avg): 20%; inhibition at 0.1 µM ([2]; read-out: % Inhibition 1): 13%; inhibition at 0.1 µM ([2]; read-out: % Inhibition 2): 21%; inhibition at 0.1 µM ([2]; read-out: % Inhibition Avg): 17%; inhibition at 0.1 µM (PIK3CG (p110 gamma); read-out: % Inhibition 1): 6%; inhibition at 0.1 µM (PIK3CG (p110 gamma); read-out: % Inhibition 2): -1%; inhibition at 0.1 µM (PIK3CG (p110 gamma); read-out: % Inhibition Avg): 2%; inhibition at 0.1 µM (AKT2 (PKB beta); read-out: % Inhibition 1): 0%; inhibition at 0.1 µM (AKT2 (PKB beta); read-out: % Inhibition 2): -9%; inhibition at 0.1 µM (AKT2 (PKB beta); read-out: % Inhibition Avg): -4%; inhibition at 0.1 µM (AMPK A2/B1/G1; read-out: % Inhibition 1): 10%; inhibition at 0.1 µM (AMPK A2/B1/G1; read-out: % Inhibition 2): 11%; inhibition at 0.1 µM (AMPK A2/B1/G1; read-out: % Inhibition Avg): 10%; inhibition at 0.1 µM (AURKA (Aurora A); read-out: % Inhibition 1): 37%; inhibition at 0.1 µM (AURKA (Aurora A); read-out: % Inhibition 2): 38%; inhibition at 0.1 µM (AURKA (Aurora A); read-out: % Inhibition Avg): 38%; inhibition at 0.1 µM (BTK; read-out: % Inhibition 1): -4%; inhibition at 0.1 µM (BTK; read-out: % Inhibition 2): -2%; inhibition at 0.1 µM (BTK; read-out: % Inhibition Avg): -3%; inhibition at 0.1 µM (CDC42 BPA (MRCKA); read-out: % Inhibition 1): -1%; inhibition at 0.1 µM (CDC42 BPA (MRCKA); read-out: % Inhibition 2): -6%; inhibition at 0.1 µM (CDC42 BPA (MRCKA); read-out: % Inhibition Avg): -3%; inhibition at 0.1 µM (CDK5/p25; read-out: % Inhibition 1): -7%; inhibition at 0.1 µM (CDK5/p25; read-out: % Inhibition 2): -10%; inhibition at 0.1 µM (CDK5/p25; read-out: % Inhibition Avg): -8%; inhibition at 0.1 µM (CDK5/p35; read-out: % Inhibition 1): -2%; inhibition at 0.1 µM (CDK5/p35; read-out: % Inhibition 2): 6%; inhibition at 0.1 µM (CDK5/p35; read-out: % Inhibition Avg): 2%; inhibition at 0.1 µM (CSNK1A1 (CK1 alpha 1); read-out: % Inhibition 1): -3%; inhibition at 0.1 µM (CSNK1A1 (CK1 alpha 1); read-out: % Inhibition 2): -2%; inhibition at 0.1 µM (CSNK1A1 (CK1 alpha 1); read-out: % Inhibition Avg): -2%; inhibition at 0.1 µM (CSNK2A2 (CK2 alpha 2); read-out: % Inhibition 1): 4%; inhibition at 0.1 µM (CSNK2A2 (CK2 alpha 2); read-out: % Inhibition 2): 3%; inhibition at 0.1 µM (CSNK2A2 (CK2 alpha 2); read-out: % Inhibition Avg): 3%; inhibition at 0.1 µM (MAP2K2 (MEK2); read-out: % Inhibition 1): 13%; inhibition at 0.1 µM (MAP2K2 (MEK2); read-out: % Inhibition 2): 6%; inhibition at 0.1 µM (MAP2K2 (MEK2); read-out: % Inhibition Avg): 9%; inhibition at 0.1 µM ([3]; read-out: % Inhibition 1): 2%; inhibition at 0.1 µM ([3]; read-out: % Inhibition 2): 4%; inhibition at 0.1 µM ([3]; read-out: % Inhibition Avg): 3%; inhibition at 0.1 µM (MAPK3 (ERK1); read-out: % Inhibition 1): -8%; inhibition at 0.1 µM (MAPK3 (ERK1); read-out: % Inhibition 2): 1%; inhibition at 0.1 µM (MAPK3 (ERK1); read-out: % Inhibition Avg): -3%; inhibition at 0.1 µM (MAPK8 (JNK1); read-out: % Inhibition 1): 4%; inhibition at 0.1 µM (MAPK8 (JNK1); read-out: % Inhibition 2): 21%; inhibition at 0.1 µM (MAPK8 (JNK1); read-out: % Inhibition Avg): 12%; inhibition at 0.1 µM (MAPK9 (JNK2); read-out: % Inhibition 1): 3%; inhibition at 0.1 µM (MAPK9 (JNK2); read-out: % Inhibition 2): -5%; inhibition at 0.1 µM (MAPK9 (JNK2); read-out: % Inhibition Avg): -1%; inhibition at 0.1 µM (MAPKAPK2; read-out: % Inhibition 1): -2%; inhibition at 0.1 µM (MAPKAPK2; read-out: % Inhibition 2): 2%; inhibition at 0.1 µM (MAPKAPK2; read-out: % Inhibition Avg): 0%; inhibition at 0.1 µM (RPS6KB1 (p70S6K); read-out: % Inhibition 1): -3%; inhibition at 0.1 µM (RPS6KB1 (p70S6K); read-out: % Inhibition 2): -10%; inhibition at 0.1 µM (RPS6KB1 (p70S6K); read-out: % Inhibition Avg): -6%
